According to patent publication US20070021421A1 (priority 2005, published 2007):
“Also recorded” adds a separate entry of the source. Where two headings read alike, the source gives them in different places.

Assays:
C57BL/6J mice = system: C57BL/6J mice
From the text: Since PD, HD, and ALS share aspects of pathogenesis and pathology of motor dysfunction, gait dynamics were also studied in the SOD1 G93A transgenic mouse model of ALS (Gurney et al. Science 1994, 264: 1772-1775) to compare gait variability in mouse models of basal ganglia disease to a mouse model of motor neuron disease. Male C57BL/6J mice (7-8 weeks; ˜22 gm) were purchased from The Jackson Laboratory (Bar Harbor, Me.). Mice transgenic for the mutated human SOD1 G93A (TgN[SOD1-G93A]lGur) (SOD1 G93A) and wild-type human SOD1 (TgN[SOD1]2Gur) (wild-type controls) were purchased from The Jackson Laboratory (Bar Harbor, ME) when the mice were ˜7.5 weeks old. Animals were maintained on a 12-hour light: 12-hour dark schedule with ad libitum access to food and water. Handling and care of mice were consistent with federal guidelines and approved institutional protocols.
MPTP. A mouse model of PD was generated in the following manner. The dopaminergic neurotoxin 1-methyl-4-phenyl-1,2,3,6-tetrahydropyridine (MPTP) (Sigma-Aldrich, St. Louis, Mo.) was dissolved in saline and was administered 30 mg/kg i.p. to 7 mice every 24 hours for 3 days (MPTP-treated mice), based on previously published studies (Colotla et al. Neurotoxicol Teratol 1990, 12: 405-407; Shimoji et al. Brain Res Mol Brain Res 2005, 134:103-108). Equivolume (0.2 ml) of saline was administered i.p. to 7 control mice every 24 hours for 3 days (saline-treated mice).
3NP. A mouse model of HD was generated in the following manner. The mitochondrial toxin 3-nitropropionic acid (3NP) (Sigma-Aldrich, St. Louis, Mo.) was dissolved in saline and was administered 3 times to 6 mice: 25 mg/kg i.p. twice, separated by 12 hours (cumulative dose of 50 mg/kg), then 25 mg/kg 24 hours later (cumulative dose of 75 mg/kg) (3NP-treated mice). Equivolume (0.2 ml) of saline was administered i.p. according to the same schedule to 6 control mice.
(§1) Gait dynamics were recorded using ventral plane videography, as previously described (Kale et al. Alcohol Clin Exp Res 2004, 28: 1839-1848; Hampton et al. Physiol Behav 2004, 82: 381-389). Briefly, a motor-driven treadmill with a transparent treadmill belt was built. A high-speed digital video camera was mounted below the transparent treadmill belt. An acrylic compartment, ˜5 cm wide by ˜25 cm long, the length of which was adjustable, was mounted on top of the treadmill to maintain the mouse that was walking on the treadmill belt within the view of the camera. Digital video images of the underside of mice were collected at 80 frames per second. Accordingly, each image obtained represented a 12.5 ms time interval; and the paw area of each image indicated the temporal placement of the paw relative to the treadmill belt. The color images were converted to their binary matrix equivalents, and the areas (in pixels) of the approaching or retreating paws relative to the belt and camera were calculated throughout each stride. Plotting the area of each digital paw print (paw contact area) imaged sequentially in time provided a dynamic gait signal, representing the temporal record of paw placement relative to the treadmill belt (refer to FIGS. 1A and 1B). From these digital paw print images, indices of gait and gait variability were determined. Each gait signal for each limb comprised a stride duration (stride time), which included the stance duration when the paw of a limb was in contact with the walking surface, plus the swing duration when the paw of the same limb was not in contact with the walking surface. Stance duration was further subdivided into braking duration (increasing paw contact area over time) and propulsion duration (decreasing paw contact area over time) (refer to FIG. 1B).
Stride frequency was calculated by counting the number of gait signals over time. Stride length was calculated from the equation: speed=stride frequency X stride length.

mice = conditions: cited from earlier work
SOD1 G93A mice = assay: Propranolol in drinking water of the SOD1 G93A mouse model of ALS (gait, walking ability, survival, body weight); format: in vivo
From the text: as §1, with “Briefly,” for “Gait dynamics were recorded using ventral plane videography, as previously described (Kale et al. Alcohol Clin Exp Res 2004, 28: 1839-1848; Hampton et al. Physiol Behav 2004, 82: 381-389). Briefly,”, “Accordingly, each image obtained represented a 12.5 ms time interval; and the paw area of each image indicated the temporal placement of the paw relative to the treadmill belt.” left out
Stride frequency was calculated by counting the number of gait signals over time. Stride length was calculated from the equation: speed=stride frequency X stride length. To obtain stance widths and paw placement angles at full stance, ellipses were fitted to the paws, and the centers, vertices, and major axes of the ellipses were determined. Forelimb and hind limb stance widths were calculated as the perpendicular distance between the major axes of the left and right paw images during peak stance. Gait data were collected and pooled from both the left and right forelimbs, and the left and right hind limbs.
Accordingly, five SOD1 G93A mice were treated with propranolol, the drug having been added to their drinking water beginning at six weeks of age.

ALS patients = conditions: cited from earlier work
rats = conditions: MPTP 3 mg/kg; rats (Tsai et al.); cited from earlier work
[1] = 3NP 75 mg/kg cumulative dose, 34 cm/s, n=3
[2] = 3NP 75 mg/kg cumulative dose, mice that could walk
[3] = 3NP 75 mg/kg cumulative, two mice with hind limb gait failure, forelimb stepping only
[4] = after 2nd administration of 3NP (50 mg/kg cumulative)
[5] = cumulative dose of 560 mg/kg of 3NP
[6] = MPTP 90 mg/kg cumulative dose, 34 cm/s
[7] = MPTP after 3 treatments, 34 cm/s
[8] = MPTP, 3 administrations of 30 mg/kg, 34 cm/s

With `O=C(O)CC[N+](=O)[O-]` [3NP, 3-nitropropionic acid] the “stride length” value (C57BL/6J mice; 3NP 75 mg/kg cumulative dose i.p., 34 cm/s, n=3 mice that could walk) was 7.3 ± 0.1 cm, the “% Stance Duration” value (C57BL/6J mice; [1]) was 59.4±2.3% and the “% Swing Duration” value (C57BL/6J mice; [1]) was 40.6±2.3%. For the same compound, the “Forelimb Paw Placement Angle” value (C57BL/6J mice; [1]) was 3.5 ± 1.1 °, the “Forelimb Stance Width” value (C57BL/6J mice; [1]) was 1.7 ± 0.1 cm and the “Hind limb Paw Placement Angle” value (C57BL/6J mice; [1]) was 15.2±1.0 °. For the same compound, the “Hind limb Stance Width” value (C57BL/6J mice; [1]) was 2.8±0.2 cm, the “Stride Duration” value (C57BL/6J mice; [1]) was 217 ± 5 ms and the “Stride Frequency” value (C57BL/6J mice; [1]) was 4.9 ± 0.1 Hz. The “percentage of stance duration spent in propulsion (propulsion/stance) of the hind limbs” value (C57BL/6J mice; [1]) was 45.2±2.5%, the “CV of forelimb stance width” value (C57BL/6J mice; [2]) was 17.3±2.4% and the “CV of forelimb stride length” value (C57BL/6J mice; [2]) was 17.9±1.6%. The “Stance width variability of the forelimbs” value (C57BL/6J mice; [2]) was 0.31±0.04 cm, the “Hind limb stride length variability and hind limb stance width variability” value (C57BL/6J mice; 3NP 75 mg/kg cumulative dose, mice that could walk, vs saline-treated mice) was “not different” and the “Stride length variability of the forelimbs” value (C57BL/6J mice; 3NP 75 mg/kg cumulative dose, three mice that could walk) was 1.31±0.09 cm. For the same compound, the “stance duration (forelimbs)” value (C57BL/6J mice; [3]) was 133 ± 5 ms, the “stride frequency (forelimbs)” value (C57BL/6J mice; [3]) was 5.0±0.1 Hz and the “stride length of forelimbs” value (C57BL/6J mice; [3]) was 7.1±0.1 cm. For the same compound, the “Stride length, stride frequency, stance duration, and swing duration” value (C57BL/6J mice; after 1st and 2nd administrations of 25 mg/kg 3NP) was “not affected”, the “CV of forelimb stance width” value (C57BL/6J mice; [4]) was 15.0±1.2% and the “Stance width variability of the forelimbs” value (C57BL/6J mice; [4]) was 0.28±0.01 cm. The “stride length variability and stance width variability of the hind limbs” value (C57BL/6J mice; [4]) was “Neither stride length variability nor stance width variability of the hind limbs was affected”, the “paw placement angle of the hind limbs” value (C57BL/6J mice; after 2nd administration of 3NP (cumulative dose of 50 mg/kg), n=6) was 16.6±1.2 ° and the “3NP-treated mice that could not walk on the treadmill belt” value (C57BL/6J mice; after 3rd administration (75 mg/kg cumulative dose), 34 cm/s, 6 mice) was “half”. For the same compound, the “effect of aggressive doses” value (C57BL/6J mice; aggressive (higher) doses of 3NP, data not shown) was “high mortality or the inability of the mice to walk at all on the treadmill belt”, the forelimb stride length (mice; [5]) was “comparable to saline-treated mice” and the “hind limb stride length” value (mice; [5]) was “shortened”. For the same compound, the “stride length of forelimbs and hind limbs” value (mice; cumulative dose of 3NP 340 mg/kg) was “no differences”.
In the case of `CC(C)NCC(O)COc1cccc2ccccc12` (centres unmarked) [propranolol], the “increase in paw placement angle variability with disease progression” value (SOD1 G93A mice; age 12 weeks through 18 weeks) is reported as “blunted or prevented; also recorded: prevented or diminished”, the “extent of gait disturbances” value (SOD1 G93A mice; propranolol in drinking water from age ~42 days, five mice) is reported as “mitigated and delayed” and the stride length (SOD1 G93A mice; propranolol in drinking water, vs longer strides with untreated tap water) is reported as “more normal”. For the same compound, the body weight (SOD1 G93A mice; relative to tap water-treated control mice, FIG. 8) was “reduction in body weight”, the “mice that could successfully walk on a moving treadmill belt” value (SOD1 G93A mice; ~16 weeks of age, tap water controls one out of five) was “three out of five” and the mice surviving (SOD1 G93A mice; ~age 17 weeks, five mice per group, tap water controls one) was 3.
For `Nc1nc2ccc(OC(F)(F)F)cc2s1` [Riluzole], the side effects (ALS patients) is given as “causes liver damage”.
In the case of `CN1CC=C(c2ccccc2)CC1` [MPTP, 1-methyl-4-phenyl-1,2,3,6-tetrahydropyridine], the “Forelimb Paw Placement Angle” value (C57BL/6J mice; [6]) is reported as 2.6 ± 0.4 °, the “Forelimb Stance Width” value (C57BL/6J mice; [6]) is reported as 1.6 ± 0.1 cm and the “Hind limb Paw Placement Angle” value (C57BL/6J mice; [6]) is reported as 10.8 ± 1.3 °. The “Hind limb Stance Width” value (C57BL/6J mice; [6]) was 2.2 ± 0.1 cm, the “Stride Duration” value (C57BL/6J mice; MPTP 90 mg/kg cumulative dose, 34 cm/s, n=7) was 194 ± 1 ms and the “% Stance Duration” value (C57BL/6J mice; MPTP 90 mg/kg cumulative dose, 34 cm/s, stance/stride) was 55.9 ± 1.1%. For the same compound, the “% Swing Duration” value (C57BL/6J mice; MPTP 90 mg/kg cumulative dose, 34 cm/s, swing/stride) was 44.1 ± 1.1%, the “CV of forelimb stance width” value (C57BL/6J mice; [7]) was 16.7±1.3% and the “CV of hind limb stance width” value (C57BL/6J mice; [7]) was 9.1±1.1%. For the same compound, the “Stance width variability of the forelimbs” value (C57BL/6J mice; [7]) was 0.26±0.01 cm, the “Stance width variability of the hind limbs” value (C57BL/6J mice; [7]) was 0.20±0.02 cm and the “coefficient of variation (CV) of forelimb stride length” value (C57BL/6J mice; [7]) was 13.6±0.8%. The “CV of hind limb stride length” value (C57BL/6J mice; MPTP after 3 treatments, 34 cm/s, NS vs saline) was 10.0±1.5%, the “Stride length variability of the forelimbs” value (C57BL/6J mice; MPTP after 3 treatments, standard deviation, 34 cm/s) was 0.91±0.04 cm and the “Stride length variability of the hind limbs” value (C57BL/6J mice; MPTP after 3 treatments, vs saline-treated mice) was “not different”. For the same compound, the “stance duration of the forelimbs” value (C57BL/6J mice; [8]) was 116 ± 2 ms, the “swing duration of the hind limbs” value (C57BL/6J mice; [8]) was 92 ± 3 ms and the stride length (rats) was “significantly reduce stride length”.
